Results from patent US20050033056A1, “Hydroxylated indole derivatives and uses thereof” (priority 2001, published 2005).

Biological target: CYP2D6 (Homo sapiens, UniProt P10635)
Assay: Compound 1 metabolism / metabolite formation by recombinant CYP2D6
Assay type: in vitro ADME
Parameters: purchased Gentest Corp. (Woburn, Mass.); host or cells: insect cells (microsomal preparation)
Protocol: The metabolism of Compound 1 was determined by the disappearance of Compound 1 or the appearance of Compound 1 metabolites in reaction mixtures as compared to respective controls. Compound 1 was incubated in the reconstituted in vitro reaction systems containing pooled human liver S9 fractions, microsomal preparations, or recombinant hepatic CYP forms, including CYP1A2, CYP2C9, CYP2C19, CYP2D6, CYP2E1, and CYP3A4. The reaction mixture (total volume of 250 μL) contained 0.5 mg of liver microsomal protein, 50 or 25 pmol of recombinant CYP, and Compound 1 (50-80 μM) in 50 mM Tris buffer containing 15 mM MgCl2 (pH 7.4). After incubating at 37° C. with gentle shaking for 1 minute, the reaction was initiated by adding 25 μL of NADPH solution (20 mg/mL), and was carried out for 1 hour. The reaction was terminated by quickly cooling the test tube on ice, followed by the addition of an equal volume of 100% methanol. The samples were centrifuged in a desktop centrifuge at 14,000 rpm for 5 minutes, and the supernatants were filtered through syringe filters (13 mm, 0.45 μm). The filtrates were subjected to analysis using LC/MS (ion trap) or LC/MS/MS.
1. LC/MS (LCQ ion trap mass spectrometer, Finnigan Corp., San Jose, Calif.): Hewlett Packard 1100 HPLC system (Waldbronn, Germany) consisted of a binary pump, an autosampler, a column compartment unit, and an online variable wavelength UV detector (VWD). The detector was monitored at 270 nm, which is the UVmax of Compound 1 predetermined by scanning between 225-400 nm using a photodiode array detector (PDA). The metabolites were separated on a Hewlett Packard Eclipse C18 column (150×2.1 mm). The mobile phases were 10 nmM ammonium acetate at pH 4.8 (A) and acetonitrile (B). The gradient (B) was 10% (0-6 minutes), 22% (12-22 minutes), 90% (25-30 minutes), and 10% (31 minutes and after). The flow rate was 0.25 mL/minute. Software Navigator (Version 1.2, Finnigan Corp.) was used to control the HPLC and MS and to acquire the data. […]

Chain of CYP2D6 (P10635 whole entry): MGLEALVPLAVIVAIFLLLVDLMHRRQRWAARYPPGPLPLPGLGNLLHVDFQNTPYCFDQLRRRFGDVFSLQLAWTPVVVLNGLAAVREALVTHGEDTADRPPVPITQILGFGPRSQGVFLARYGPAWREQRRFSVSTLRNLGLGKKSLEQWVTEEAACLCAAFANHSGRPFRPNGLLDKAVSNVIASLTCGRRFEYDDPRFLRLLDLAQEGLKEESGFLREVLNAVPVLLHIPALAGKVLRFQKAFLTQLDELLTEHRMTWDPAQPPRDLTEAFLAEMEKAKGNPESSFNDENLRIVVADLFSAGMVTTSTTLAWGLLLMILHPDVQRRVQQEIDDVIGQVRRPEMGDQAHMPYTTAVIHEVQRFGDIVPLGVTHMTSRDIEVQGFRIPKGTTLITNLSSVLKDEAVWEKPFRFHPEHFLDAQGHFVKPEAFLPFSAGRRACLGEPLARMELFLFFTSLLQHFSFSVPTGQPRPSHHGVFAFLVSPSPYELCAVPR

Structure (SMILES): CNC(=O)Cc1ccc2ccn(C3CCN(CCc4ccccc4F)CC3)c2c1 [Compound 1, N-methyl-[1-[1-(2-fluorophenethyl)piperidine-4-yl]-1H-indol-6-yl] acetamide]
- metabolism of Compound 1 by CYP2D6 (in words) (approximately 50 μM of Compound 1): metabolized
- Rel. Amount (%) (recombinant CYP2D6, estimated by UV absorbance at 270 nm, metabolite formed or Compound 1 left after 1 hour with NADPH): 78%
